Measured values as given in ChEMBL document CHEMBL4421722, “Inhibitors of protein prenyltransferases” (2013).
Activity calls are given as the source filed them. No cut-off for these calls is given here.

Experiments:
[1] = Inhibition of rat recombinant geranylgeranyltransferase type I expressed in Escherichia coli assessed as reduction in geranylgeranylation of RhoA incubated for 30 mins in presence of [3H]GGPP by scintillation counting assay relative to control
[2] = tested on: CFPAC-1; assay: Antiproliferative activity against human CFPAC-1 cells assessed as inhibition of cell proliferation incubated for 72 hrs by CCK8 assay; assay type: functional, cell-based; details: CFPAC-1, 72 h
[3] = tested on: Capan-2; assay: Antiproliferative activity against human Capan2 cells assessed as inhibition of cell proliferation incubated for 72 hrs by CCK8 assay; assay type: functional, cell-based; details: Capan-2, 72 h
[4] = tested on: MCF7; assay: Antiproliferative activity against human MCF7 cells assessed as inhibition of cell proliferation incubated for 6 days by CCK8 assay; assay type: functional, cell-based
[5] = tested on: MIA PaCa-2; assay: Antiproliferative activity against human MIAPaCa2 cells assessed as inhibition of cell proliferation incubated for 72 hrs by CCK8 assay; assay type: functional, cell-based; details: MIA PaCa-2, 72 h
[6] = Antiproliferative activity against human MCF10A cells assessed as inhibition of cell proliferation incubated for 72 hrs by CCK8 assay; assay type: cell-based, MCF-10A
[7] = tested on: K562; assay: Antiproliferative activity against human K562 cells assessed as inhibition of cell proliferation incubated for 72 hrs by CCK8 assay; assay type: functional, cell-based; details: for GI50: K562, 72 h
[8] = tested on: Jurkat; assay: Antiproliferative activity against human Jurkat cells assessed as inhibition of cell proliferation incubated for 72 hrs by CCK8 assay; assay type: functional, cell-based
[9] = tested on: ASPC1; assay: Antiproliferative activity against human AsPC1 cells assessed as inhibition of cell proliferation incubated for 6 days by CCK8 assay; assay type: functional, cell-based; details: ASPC1, 144 h
[10] = tested on: BT-474; assay: Antiproliferative activity against human BT474 cells assessed as inhibition of cell proliferation incubated for 72 hrs by CCK8 assay; assay type: functional, cell-based; details: BT-474, 72 h
[11] = tested on: PANC-1; assay: Antiproliferative activity against human PANC1 cells assessed as inhibition of cell proliferation incubated for 72 hrs by CCK8 assay; assay type: functional, cell-based; details: PANC-1, 72 h
[12] = tested on: MDA-MB-231; assay: Antiproliferative activity against human MDA-MB-231 cells assessed as inhibition of cell proliferation incubated for 72 hrs by CCK8 assay; assay type: functional; details: MDA-MB-231, 72 h
[13] = tested on: K562; assay: Induction of cell cycle arrest in human K562 cells assessed as accumulation at G1 phase incubated for 48 hrs by flow cytometry; assay type: functional, cell-based
[14] = tested on: K562; assay: Induction of cell cycle arrest in human K562 cells assessed as reduction in accumulation at S phase incubated for 48 hrs by flow cytometry; assay type: functional, cell-based
[15] = (§1) Competitive inhibition of rat recombinant geranylgeranyltransferase type I expressed in Escherichia coli assessed as reduction in geranylgeranylation of RhoA incubated for 30 mins in presence of varying level of [3H]GGPP and fixed RhoA levels by scintillation counting assay relative to control
[16] = tested on: HPAC; assay: Antiproliferative activity against human HPAC cells assessed as inhibition of cell proliferation incubated for 72 hrs by CCK8 assay; assay type: functional, cell-based
[17] = Antiproliferative activity against human SEMK2 cells assessed as inhibition of cell proliferation incubated for 6 days by CCK8 assay; assay type: functional, cell-based; details: SEMK2, 144 h
[18] = tested on: K562; assay: Induction of cell cycle arrest in human K562 cells assessed as accumulation at G1 phase up to […] incubated for 48 hrs by flow cytometry; assay type: functional, cell-based
[19] = species on record: Rattus norvegicus; assay: Uncompetitive inhibition of rat recombinant geranylgeranyltransferase type I expressed in Escherichia coli assessed as reduction in geranylgeranylation of RhoA incubated for 30 mins in presence of varying level of [3H]GGPP and fixed RhoA levels by scintillation counting assay by Michaelis-Menten plot analysis
[20] = species on record: Rattus norvegicus; assay: as §1
[21] = target: T1, Geranylgeranyl transferase type-2 (Homo sapiens) (UniProt P53611+Q92696); assay: Inhibition of RabGGTase (unknown origin) at 50000 nM using YPTI as substrate protein and [3H]geranylgeranyl pyrophosphate incubated for 20 mins by scintillation counting assay; assay type: protein-complex assay
[22] = species on record: Rattus norvegicus; assay: Inhibition of rat recombinant geranylgeranyltransferase type I expressed in Escherichia coli assessed as residual enzyme activity for geranylgeranylation of K-Ras4B at 50 uM incubated for 30 mins in presence of [3H]GGPP by scintillation counting assay relative to control
[23] = tested on: HEK293; assay: Inhibition of geranylgeranyltransferase type I in HEK293 cells expressing Myc-HA-tagged Rheb-CVSL assessed as effect on unprenylated Rap1 accumulation at 12.5 to 50 uM incubated for 48 hrs by SDS-PAGE and immunoblot analysis; assay type: cell-based; details: Homo sapiens
[24] = species on record: Rattus norvegicus; assay: Competitive inhibition of rat recombinant geranylgeranyltransferase type I expressed in Escherichia coli assessed as reduction in geranylgeranylation of RhoA incubated for 30 mins in presence of fixed level of [3H]GGPP and varying RhoA levels by scintillation counting assay relative to control
[25] = tested on: HEK293; assay: Inhibition of geranylgeranyltransferase type I in HEK293 cells expressing Myc-HA-tagged Rheb-WT assessed as effect on unprenylated Rap1 accumulation at 3.1 to 25 uM incubated for 48 hrs by SDS-PAGE and immunoblot analysis; assay type: cell-based; details: Homo sapiens
[26] = species on record: Rattus norvegicus; assay: Inhibition of rat recombinant geranylgeranyltransferase type I expressed in Escherichia coli assessed as residual enzyme activity for geranylgeranylation of RhoA at 50 uM incubated for 30 mins in presence of [3H]GGPP by scintillation counting assay relative to control
[27] = target: Protein farnesyltransferase (Rattus norvegicus) (UniProt Q04631+Q02293); assay: Inhibition of rat recombinant FTase alpha/beta expressed in Escherichia coli at 50000 nM using K-Ras4B as a substrate as and [3H]farnesyl pyrophosphate incubated for 30 mins by scintillation counting assay
[28] = tested on: HEK293; assay: Inhibition of geranylgeranyltransferase type I in HEK293 cells expressing Myc-HA-tagged Rheb-CVSL assessed as effect on unprenylated Rap1 accumulation at 5 to 10 uM incubated for 48 hrs by SDS-PAGE and immunoblot analysis; assay type: cell-based; details: Homo sapiens
[29] = tested on: HEK293; assay: Inhibition of geranylgeranyltransferase type I in HEK293 cells expressing Myc-HA-tagged Rheb-WT assessed as effect on unprenylated Rap1 accumulation at 1.25 to 10 uM incubated for 48 hrs by SDS-PAGE and immunoblot analysis; assay type: cell-based; details: Homo sapiens
[30] = Inhibition of rat recombinant geranylgeranyltransferase type I expressed in Escherichia coli assessed as reduction in geranylgeranylation of K-Ras4B incubated for 30 mins in presence of [3H]GGPP by scintillation counting assay
[31] = tested on: Jurkat; assay: Antiproliferative activity against human Jurkat cells assessed as inhibition of cell proliferation at 12.5 uM incubated for 72 hrs by CCK8 assay; assay type: functional, cell-based
[32] = target: T1, Geranylgeranyl transferase type-2 (Homo sapiens); assay: Inhibition of RabGGTase (unknown origin) up to 10000 nM using YPTI as substrate protein and [3H]geranylgeranyl pyrophosphate incubated for 20 mins by scintillation counting assay; assay type: protein-complex assay
[33] = tested on: PANC-1; assay: Antiproliferative activity against human PANC1 cells assessed as inhibition of cell proliferation at 12.5 uM incubated for 72 hrs by CCK8 assay; assay type: functional, cell-based
[34] = tested on: HEK293; assay: Inhibition of geranylgeranyltransferase type I in HEK293 cells expressing Myc-HA-tagged Rheb-WT assessed as effect on unprenylated Rap1 accumulation at 2.5 uM incubated for 48 hrs by SDS-PAGE and immunoblot analysis; assay type: cell-based; details: Homo sapiens

SMILES	IC50 [1]	GI50 [2]	GI50 [3]	GI50 ([4]; MCF7, 144 h)	GI50 [5]	GI50 at 72 h [6]	GI50 [7]	GI50 [8]	GI50 [9]	GI50 [10]	GI50 [11]	other results
Cc1ccccc1S(=O)(=O)N1[C@@H](c2cccc(Cl)c2)C(C(=O)N[C@@H](CC(C)C)C(N)=O)=CC[C@H]1c1ccc(Cl)cc1	> 50 µM	13.7 µM	14 µM	10.9 µM	12 µM	> 20 µM	6.15 µM	6.1 µM				
Cc1ccccc1S(=O)(=O)N1[C@@H](c2ccc(Cl)cc2)C(C(=O)N[C@@H](Cc2ccccc2)C(N)=O)=C[C@H]1C(C)CC(C)(C)C (stereo partly drawn)	10 to 50 µM		7.5 to 10.5 µM	3.1 to 4.71 µM	6.7 to 7.17 µM	9.16 to 11.3 µM	5.95 to 6.3 µM	6.4 to 9.76 µM	8.61 to 11.4 µM	10.1 to 10.8 µM	8.6 to 8.85 µM	
Cc1ccccc1S(=O)(=O)N1[C@@H](c2ccc(Cl)c(Cl)c2)C(C(=O)N[C@@H](Cc2ccccc2)C(N)=O)=C[C@H]1C(C)(C)C	5.4 to 7.6 µM	2.03 to 6.09 µM	8.45 to 11.3 µM		7.49 to 8.06 µM		6.74 to 6.9 µM	5.62 to 6.9 µM	11.5 to 12.9 µM	10.6 to 10.8 µM	7.52 to 11.7 µM	GI50 [12]: 5.54 to 12.6 µM
Cc1ccccc1S(=O)(=O)N1[C@@H](c2ccc(Cl)cc2)C(C(=O)N[C@@H](Cc2ccccc2)C(=O)O)=C[C@H]1C(C)(C)C		6.38 µM	11.5 µM		7.48 µM				12.4 µM			
Cc1ccccc1S(=O)(=O)N1[C@@H](c2ccc(Cl)cc2)C(COCC(=O)N[C@@H](Cc2ccccc2)C(N)=O)=C[C@H]1C(C)(C)C												Activity [13]: Dose-dependent effect; Activity [14]: Dose-dependent effect; IC50 [2]: 8.1 µM; IC50 [15]: 12.5 µM; IC50 [9]: > 20 µM; IC50 [3]: 11.1 µM; inhibition [4]: Dose-dependent effect; IC50 ([4]; MCF7, 144 h): 6.4 µM; IC50 [5]: 13.9 µM; IC50 [10]: 11.6 µM; IC50 [16]: 11.7 µM; IC50 [11]: 12.6 µM; IC50 [8]: 1.3 µM; IC50 [17]: 14.1 µM
CC(C)C[C@H](NC(=O)C1=CC[C@@H](c2cccc(Br)c2)N(S(=O)(=O)c2ccc(Cl)cc2)[C@H]1c1cccc(Cl)c1)C(N)=O				3.43 µM		14.2 µM	7.06 µM					
Cc1ccccc1S(=O)(=O)N1[C@@H](c2cccc(Cl)c2)C(C(=O)O)=CC[C@H]1c1ccc(Cl)cc1	0.31 to 0.313 µM							20 µM				Activity [18]: Active; inhibition [19]: Active; inhibition [20]: inactive; inhibition [21]: inactive; Activity [22]: 14.7 to 41.7%; inhibition [23]: Active; inhibition [24]: Active; inhibition [25]: Active; inhibition [7]: Active; Activity [26]: 7.5 to 24.8%; inhibition [27]: inactive
COC(=O)[C@H](Cc1ccccc1)NCC(=O)OCC1=C[C@@H](C(C)(C)C)N(S(=O)(=O)c2ccccc2C)[C@H]1c1ccc(Cl)cc1												inhibition [28]: Active; inhibition [29]: Active
Cc1ccccc1S(=O)(=O)N1[C@@H](c2ccc(Cl)cc2)C(C(=O)O)=C[C@H]1C(C)(C)C (relative stereo)	0.5 to 2.5 µM											IC50 [30]: 2 µM; inhibition [19]: Active; inhibition [20]: inactive; Activity [22]: 13.3%; inhibition [23]: Active; inhibition [24]: Active; growth inhibition (GI) [31]: Active; inhibition [32]: Active; growth inhibition (GI) [33]: Active; inhibition [34]: inactive; inhibition [25]: Active; Activity [26]: 5.3%; inhibition [27]: inactive
CC(C)(C)[C@@H]1C=C(C(=O)N[C@@H](Cc2ccccc2)C(N)=O)[C@H](c2ccc(Br)cc2)N1S(=O)(=O)c1ccccc1Cl	6 to 16 µM	6.16 to 6.3 µM	8.32 to 10.7 µM		6.15 to 12.1 µM		5.21 to 9.18 µM	4.74 to 8.75 µM	12.2 to 16.8 µM	9.08 to 9.9 µM	9.05 to 12 µM	GI50 [12]: 4.43 to 11.3 µM
